# In patent US9023882B2, “5-membered nitrogen containing heterocyclic derivatives and pharmaceutical compositions comprising the same” (Kissei Pharmaceutical Co., Ltd., priority 2007, dated 2015):
# pIC50: −log10 of the molar value.
# Target: Xanthine oxidase (from bovine milk, Sigma) (Bos taurus (Bovine), UniProt P80457)
# Test: Xanthine oxidase inhibitory activity
# Type: biochemical
# Conditions: 100 μM xanthine final, absorbance at 290 nm
# Description: (1) Preparation of Test Compounds
# Test compounds were dissolved in DMSO (Wako) at 40 mM concentration and then diluted to intended concentrations with phosphate-buffered saline (PBS).
# (2) Method for Measurement
# Xanthine oxidase (from bovine milk, Sigma) was prepared with phosphate-buffered saline (PBS) at 0.02 units/mL, and then the solution was added to 96 well plates at 50 μL/well. In addition, test compounds diluted with PBS were added at 50 μL/well. Xanthine (Wako) at 200 μM prepared with PBS was added at 100 μL/well, and the reaction was conducted for 10 minutes at room temperature. Absorbance at 290 nm was measured using a microplate reader SpectraMax Plus 384 (Molecular device). The absorbance under a condition without xanthine is 0%, and control without test compounds is 100%. Fifty % inhibitory concentration of a test compound (IC50) was calculated (Tables 91 to 92). Ex. No in the table indicates Example number.
# Sequence of Xanthine oxidase (from bovine milk, Sigma) (P80457 whole entry): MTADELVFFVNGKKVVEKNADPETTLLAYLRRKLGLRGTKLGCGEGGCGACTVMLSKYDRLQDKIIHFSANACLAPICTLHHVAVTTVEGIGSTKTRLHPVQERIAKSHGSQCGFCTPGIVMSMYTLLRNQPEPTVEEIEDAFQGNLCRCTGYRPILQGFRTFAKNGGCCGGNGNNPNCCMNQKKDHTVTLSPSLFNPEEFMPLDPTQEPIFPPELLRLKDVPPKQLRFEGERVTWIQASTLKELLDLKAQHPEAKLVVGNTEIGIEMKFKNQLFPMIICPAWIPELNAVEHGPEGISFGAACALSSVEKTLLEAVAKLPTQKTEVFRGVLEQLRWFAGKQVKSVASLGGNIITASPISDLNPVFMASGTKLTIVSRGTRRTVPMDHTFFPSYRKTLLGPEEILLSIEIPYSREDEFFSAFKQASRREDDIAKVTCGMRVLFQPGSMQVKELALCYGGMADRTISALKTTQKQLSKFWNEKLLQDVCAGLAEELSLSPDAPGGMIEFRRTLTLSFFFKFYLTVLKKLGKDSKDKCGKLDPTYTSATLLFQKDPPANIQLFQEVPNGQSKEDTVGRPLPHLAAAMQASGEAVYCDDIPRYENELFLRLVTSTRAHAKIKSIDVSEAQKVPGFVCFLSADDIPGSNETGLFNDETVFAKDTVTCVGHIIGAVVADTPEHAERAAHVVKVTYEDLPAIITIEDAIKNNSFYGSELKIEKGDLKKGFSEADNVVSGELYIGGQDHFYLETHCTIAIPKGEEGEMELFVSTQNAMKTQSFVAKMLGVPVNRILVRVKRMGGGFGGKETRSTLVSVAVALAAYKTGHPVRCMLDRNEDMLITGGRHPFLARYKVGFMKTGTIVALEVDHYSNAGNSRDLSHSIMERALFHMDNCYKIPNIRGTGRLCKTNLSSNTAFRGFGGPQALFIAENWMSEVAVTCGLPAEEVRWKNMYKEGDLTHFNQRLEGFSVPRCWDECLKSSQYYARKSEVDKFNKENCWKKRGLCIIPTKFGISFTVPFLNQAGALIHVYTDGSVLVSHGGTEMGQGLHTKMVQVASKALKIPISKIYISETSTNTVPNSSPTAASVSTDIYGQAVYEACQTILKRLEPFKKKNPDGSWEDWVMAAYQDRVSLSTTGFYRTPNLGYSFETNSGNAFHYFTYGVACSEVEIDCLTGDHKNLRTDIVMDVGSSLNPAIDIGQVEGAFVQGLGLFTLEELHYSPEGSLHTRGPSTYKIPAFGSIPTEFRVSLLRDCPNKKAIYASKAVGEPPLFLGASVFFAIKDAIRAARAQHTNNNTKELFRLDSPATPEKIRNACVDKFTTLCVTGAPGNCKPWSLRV
row,SMILES,pIC50
1,N#Cc1cn(-c2cc(C(=O)O)ccn2)cc1-c1cccs1 [Example 360],6.84
2,N#Cc1cn(-c2cc(C(=O)O)ccn2)cc1-c1ccc(Cl)cc1 [Example 365],7.48
3,COc1ccc(-c2cn(-c3cc(C(=O)O)ccn3)cc2C#N)cc1 [Example 368],7.88

# Next, values leading:
row,pIC50,SMILES
1,8.06,N#Cc1ccn(-c2ccc(C(=O)O)c(O)c2)c1 [Example 358]
2,8.15,CCc1c(-c2ccccc2)c(C#N)cn1-c1ccc(C(=O)O)c(O)c1 [Example 327]
3,7.97,N#Cc1cn(-c2ccc(C(=O)O)c(O)c2)cc1-c1ccc(F)cc1 [Example 320]
4,8.19,N#Cc1cn(-c2ccc(C(=O)O)c(O)c2)cc1-c1cccc2c1OCO2 [Example 322]
5,7.91,COCCOc1ccc(-c2cn(-c3ccc(C(=O)O)c(O)c3)cc2C#N)cc1 [Example 347]
6,8.10,CCOc1ccccc1-c1cn(-c2ccc(C(=O)O)c(O)c2)cc1C#N [Example 335]
7,8.21,COc1ccc(-c2cn(-c3ccc(C(=O)O)c(O)c3)cc2C#N)c(F)c1 [Example 283]
8,7.56,N#Cc1cn(-c2ccc(C(=O)O)c(O)c2)cc1-c1cc2ccccc2o1 [Example 290]
9,8.28,N#Cc1cn(-c2ccc(C(=O)O)c(O)c2)cc1-c1ccc(Cl)s1 [Example 313]
10,8.28,COc1cn(-c2ccc(C(=O)O)c(O)c2)cc1C#N [Example 282]
11,7.06,N#Cc1cn(-c2ccc(C(=O)O)c(O)c2)cc1-c1cccc(OCc2ccccc2)c1 [Example 333]
12,8.24,CCOc1ccc(-c2cn(-c3ccc(C(=O)O)c(O)c3)cc2C#N)cc1 [Example 340]
13,8.18,CCOC(=O)c1cn(-c2ccc(C(=O)O)c(O)c2)cc1C(F)(F)F [Example 298]
14,8.77,N#Cc1cn(-c2ccc(C(=O)O)c(O)c2)cc1-c1ccco1 [Example 356]
15,7.44,CCCOc1ccccc1-c1cn(-c2ccc(C(=O)O)c(O)c2)cc1C#N [Example 336]
16,8.28,N#Cc1ccc(-c2cn(-c3ccc(C(=O)O)c(O)c3)cc2C#N)cc1 [Example 331]
17,8.05,COc1ccc(-c2cn(-c3ccc(C(=O)O)c(O)c3)cc2C#N)cc1 [Example 316]
18,8.23,N#Cc1cn(-c2ccc(C(=O)O)c(O)c2)cc1Cc1ccccc1 [Example 357]
19,7.95,COc1ccccc1CCc1cn(-c2ccc(C(=O)O)c(O)c2)cc1C#N [Example 294]
20,8.03,N#Cc1cn(-c2ccc(C(=O)O)c(O)c2)cc1-c1ccccc1-c1ccccc1 [Example 328]
21,8.25,COc1ccc(CCc2cn(-c3ccc(C(=O)O)c(O)c3)cc2C#N)cc1 [Example 296]
22,8.09,N#Cc1cn(-c2ccc(C(=O)O)c(O)c2)cc1-c1ccccc1F [Example 319]
23,8.40,N#Cc1cn(-c2ccc(C(=O)O)c(O)c2)cc1-c1ccc(C(=O)O)cc1 [Example 337]
24,8.24,N#Cc1cn(-c2ccc(C(=O)O)c(O)c2)cc1CCc1ccccc1 [Example 287]
25,7.39,N#Cc1cn(-c2ccc(C(=O)O)c(O)c2)cc1-c1cccc(C(F)(F)F)c1 [Example 281]
26,7.77,N#Cc1cn(-c2ccc(C(=O)O)c(O)c2)cc1-c1ccc(C(F)(F)F)cc1 [Example 318]

# Same assay, conditions: 0.02 units/mL, xanthine 200 μM, 10 minutes at room temperature, absorbance at 290 nm
row,SMILES,pIC50
1,N#Cc1cn(-c2ccc(C(=O)O)cc2)cc1C(=O)c1ccccc1 [Example 224],7.97
2,"N#Cc1cn(-c2ccc(C(=O)O)cc2)cc1OCc1ccccc1 [Example 18, 4-(3-Cyano-4-benzyloxypyrrole-1-yl)benzoic acid]",8.15
3,N#Cc1cn(-c2ccc(C(=O)O)cc2)cc1Cc1ccccc1 [Example 235],8.07
4,N#Cc1cn(-c2ccc(C(=O)O)cc2)cc1-c1ccccc1OCc1cccs1 [Example 175],7.56
5,CCCCc1cn(-c2ccc(C(=O)O)cc2)cc1C#N [Example 240],8.48
6,CCCCCCCc1cn(-c2ccc(C(=O)O)cc2)cc1C#N [Example 247],8.05
7,Cc1cccc(COc2ccccc2-c2cn(-c3ccc(C(=O)O)cc3)cc2C#N)c1 [Example 168],7.15
8,N#Cc1cn(-c2ccc(C(=O)O)cc2)cc1-c1csc2ccccc12 [Example 253],8.27
9,CCCCCc1cn(-c2ccc(C(=O)O)cc2)cc1C#N [Example 245],8.55
10,CCCc1c(C#N)cn(-c2ccc(C(=O)O)cc2)c1C [Example 239],7.82
11,COc1cccc(COc2ccccc2-c2cn(-c3ccc(C(=O)O)cc3)cc2C#N)c1 [Example 184],7.14
12,N#Cc1cn(-c2ccc(C(=O)O)cc2)nc1NC(=O)c1ccccc1 [Example 262],8.51
13,CCOc1cn(-c2ccc(C(=O)O)cc2)cc1C#N [Example 257],8.39
14,N#Cc1cn(-c2ccc(C(=O)O)cc2)cc1-c1ccc(Oc2ccccc2)cc1 [Example 166],7.28
15,CCOCCOc1ccccc1-c1cn(-c2ccc(C(=O)O)cc2)cc1C#N [Example 213],7.77
16,N#Cc1cn(-c2ccc(C(=O)O)cc2)cc1-c1ccc(OCC(=O)O)cc1 [Example 160],8.68
17,N#Cc1cn(-c2ccc(C(=O)O)cc2)cc1-c1ccc(OCCO)cc1 [Example 154],8.40
18,N#Cc1cn(-c2ccc(C(=O)O)cc2)cc1-c1cccc(OCCOc2ccccc2)c1 [Example 216],7.68
19,CC(C)n1cc(-c2cn(-c3ccc(C(=O)O)cc3)cc2C#N)c2ccccc21 [Example 252],7.48
20,CN(C)/C=N/c1nn(-c2ccc(C(=O)O)cc2)cc1C#N [Example 261],8.28
21,CN(C)C(=O)c1cn(-c2ccc(C(=O)O)cc2)cc1C#N [Example 226],7.71
22,N#Cc1cn(-c2ccc(C(=O)O)cc2)cc1CCC1CCCO1 (stereo not drawn) [Example 259],8.33
23,N#Cc1cn(-c2ccc(C(=O)O)cc2)cc1CCc1ccco1 [Example 258],8.41
24,Cc1c(CC(C)C)c(C#N)cn1-c1ccc(C(=O)O)cc1 [Example 242],8.05
25,N#Cc1nn(-c2ccc(C(=O)O)cc2)cc1-c1ccc2c(c1)OCO2 [Example 249],8.03

# More lines, now with the values ahead:
row,pIC50,SMILES
1,7.82,N#Cc1cn(-c2ccc(C(=O)O)c(O)c2)cc1-c1cc(F)cc(F)c1 [Example 271]
2,8.14,Cc1c(F)cccc1-c1cn(-c2ccc(C(=O)O)c(O)c2)cc1C#N [Example 275]
3,7.84,Cc1ccc(-c2cn(-c3ccc(C(=O)O)c(O)c3)cc2C#N)c(C)c1 [Example 273]
4,8.14,N#Cc1cn(-c2ccc(C(=O)O)c(O)c2)cc1-c1cccc(F)c1 [Example 265]
5,8.00,Cc1cccc(C)c1-c1cn(-c2ccc(C(=O)O)c(O)c2)cc1C#N [Example 272]
6,7.62,N#Cc1cn(-c2ccc(C(=O)O)c(O)c2)cc1-c1cccc(F)c1F [Example 270]
7,7.75,N#Cc1cn(-c2ccc(C(=O)O)cc2)cc1-c1cccc(OCc2ccsc2)c1 [Example 174]
8,8.23,N#Cc1cn(-c2ccc(C(=O)O)cc2)cc1-c1cccc(OCCCCO)c1 [Example 200]
9,7.94,N#Cc1cn(-c2ccc(C(=O)O)c(O)c2)cc1-c1ccc(F)cc1F [Example 267]
10,8.30,N#Cc1cn(-c2ccc(C(=O)O)c(O)c2)cc1-c1c(F)cccc1F [Example 274]
11,7.63,Cc1ccc(-c2cn(-c3ccc(C(=O)O)c(O)c3)cc2C#N)cc1F [Example 269]
12,8.44,N#Cc1cn(-c2ccc(C(=O)O)cc2)cc1-c1ccco1 [Example 244]
